Laboratory results reported in PMC10477861, “Efficient Mining of Anticancer Peptides from Gut Metagenome” (Advanced Science, 2023).

What was measured:
Conditions in all cases: 25 µM pACP, 24 h, maintenance medium 1% FBS, ratio of viability to vehicle (PBS), at least three technical repetitions
HT29 = test: MTT primary screening of anticancer activity, HT29; assay type: cell-based, Human
In short: (§1)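 Each candidate peptide is tested […] at 25 µM for 24 h on subconfluent (60%) cells kept in low-serum (1% FBS) medium. Viability is quantified with an MTT kit.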

CT26 = test: MTT primary screening of anticancer activity, CT26; assay type: cell-based, Murine
In short: as §1

MCF7 = test: MTT primary screening of anticancer activity, MCF7; assay type: cell-based
In short: as §1

SK-BR-3 = test: MTT primary screening of anticancer activity, SK-BR-3; assay type: cell-based
In short: as §1

BT474 = test: MTT primary screening of anticancer activity, BT474; assay type: cell-based
In short: as §1

MDA-MB-453 = test: MTT primary screening of anticancer activity, MDA-MB-453; assay type: cell-based
In short: as §1

MDA-MB-468 = test: MTT primary screening of anticancer activity, MDA-MB-468; assay type: cell-based
In short: as §1

MDA-MB-436 = test: MTT primary screening of anticancer activity, MDA-MB-436; assay type: cell-based
In short: as §1

Hela = test: MTT primary screening of anticancer activity, Hela; assay type: cell-based, Human
In short: as §1

EFM192A = test: MTT primary screening of anticancer activity, EFM192A; assay type: cell-based
In short: as §1

MDA-MB-231 = test: MTT primary screening of anticancer activity, MDA-MB-231; assay type: cell-based
In short: as §1

T47D = test: MTT primary screening of anticancer activity, T47D; assay type: cell-based
In short: as §1

B16 = test: MTT primary screening of anticancer activity, B16; assay type: cell-based, Mouse
In short: as §1

Caco2 = test: MTT primary screening of anticancer activity, Caco2; assay type: cell-based, Human
In short: as §1

LCC = test: MTT primary screening of anticancer activity, LCC; assay type: cell-based
In short: as §1

HCT116 = test: MTT primary screening of anticancer activity, HCT116; assay type: cell-based, Human
In short: as §1

Sequence	Survival rate of cancer cells in primary screening (HT29)	Survival rate of cancer cells in primary screening (CT26)	Survival rate of cancer cells in primary screening (MCF7)	Survival rate of cancer cells in primary screening (SK-BR-3)	Survival rate of cancer cells in primary screening (BT474)	Survival rate of cancer cells in primary screening (MDA-MB-453)	Survival rate of cancer cells in primary screening (MDA-MB-468)	Survival rate of cancer cells in primary screening (MDA-MB-436)	Survival rate of cancer cells in primary screening (Hela)	Survival rate of cancer cells in primary screening (EFM192A)	Survival rate of cancer cells in primary screening (MDA-MB-231)	Survival rate of cancer cells in primary screening (T47D)	Survival rate of cancer cells in primary screening (B16)	Survival rate of cancer cells in primary screening (Caco2)	Survival rate of cancer cells in primary screening (LCC)	Survival rate of cancer cells in primary screening (HCT116)
YCIFFLDKGFPGILADFLCLAGKRTIKLKALKQLIRQQVY [pACP2286]	1.00	1.00	0.76	1.00	0.72	1.00	1.00	1.00	1.00	1.00	1.00	0.63	0.77	1.00	1.00	1.00
QESDAKKYGVGGYFQGLLSQ [pACP1529]	1.00	1.00	1.00	1.00	1.00	1.00	1.00	1.00	1.00	1.00	1.00	0.75	1.00	1.00	1.00	1.00
IYRKGTCADCAQGGVCTGHCSNKKTCAALKGVDKIAEDLGRGIK [pACP822]	1.00	1.00	0.78	1.00	1.00	1.00	1.00	1.00	1.00	1.00	1.00	0.63	0.69	1.00	1.00	1.00
KGVRGKICKGKRCKQISNSGCDRQEIQEKQENRYRKEKQNKG [pACP886]	1.00	1.00	1.00	1.00	1.00	1.00	1.00	1.00	0.73	1.00	1.00	0.69	0.78	1.00	1.00	1.00
GVPMGSVIKKRRKRMAKKKHRKLLRKTRHQRRNKK [pACP593]	1.00	1.00	1.00	1.00	0.78	0.63	1.00	1.00	0.74	1.00	1.00	0.71	1.00	1.00	1.00	1.00
PPSTRIISKVYPFKKHARGGWAIPGMMCSQMVER [pACP1472]	1.00	1.00	1.00	1.00	1.00	1.00	0.76	1.00	1.00	1.00	1.00	1.00	1.00	1.00	1.00	1.00
AAGVSIEIHISLTLFTQVKCVARSQCAAEGAGLRHIKVAALQSCSRRRAH [pACP2]	1.00	1.00	1.00	1.00	1.00	1.00	1.00	1.00	1.00	1.00	1.00	0.71	1.00	1.00	1.00	1.00
DRGERVAHGLDLLDGVVAEGVAAKGDDNTIGLAKRLRHCWNPFCKRPTTH [pACP253]	1.00	1.00	1.00	1.00	1.00	1.00	0.76	1.00	1.00	1.00	1.00	0.70	1.00	1.00	1.00	1.00
